Consider 27 molecules from PubChem BioAssay (NCI).

Molecules are shown by their SMILES. “And” between values parts separate entries of the source, which are not always exact repeats. Equal entries are not always repeated.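 All cell lines were grown in 96-well plates and treated with compound for 48 hours. GI50: concentration for 50% inhibition of growth. TGI denotes the concentration required for complete inhibition of growth.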 Some results are limits rather than exact numbers.

Test systems include ACHN renal; UO-31 renal; NCI-H460 lung; LOX IMVI melanoma; TK-10 renal; MDA-MB-231 breast; MDA-MB-435; MDA-N; HCT-15 colon; HS 578T breast.
Holding throughout (experiment): NCI-60 cell line screen, 48 h

Take `O=C1C2=C(CCCCC2)C2CCCCC12O` (stereo not drawn): the TGI in the test on ACHN renal, in the test with UO-31 renal, in the test on NCI-H460 lung, in the test with LOX IMVI melanoma and with TK-10 renal was > 100 µM throughout.
Turning to `COc1c(-c2cccs2)oc2c(CC(=O)O)cccc2c1=O`, the TGI with UO-31 renal is 48.9 µM; in the test with MDA-MB-231 breast it was > 100 µM; with TK-10 renal, > 100 µM; with MDA-MB-435, > 100 µM; in the test on MDA-N it was > 100 µM.
For the molecule `COC12OC3CC4(C)C(=CC3OC(OC(C)C1O)C2O)CCC1C4CCC2(C)C(c3ccc(=O)oc3)CCC12O` (stereo not drawn), the TGI with ACHN renal stood at 0.00449 µM; with UO-31 renal it was 0.00457 µM; in the test with NCI-H460 lung, 0.00224 µM; in the test on LOX IMVI melanoma, 0.00281 µM; in the test on MDA-MB-231 breast, 0.00792 µM; in the test on TK-10 renal, 0.00216 µM. Also, the TGI in the test with MDA-MB-435 stood at 0.00564 µM; in the test on MDA-N it was 0.00434 µM; with HCT-15 colon, 0.00553 µM.
For `COc1ccc(CCNC(=O)CCCCCO)cc1OC`, the TGI with ACHN renal, in the test on UO-31 renal, in the test with HS 578T breast, in the test on NCI-H460 lung, in the test with MDA-MB-231 breast and in the test on TK-10 renal was > 100 µM in each case. Further, the TGI in the test on MDA-MB-435 and with HCT-15 colon was > 100 µM in each case.
In the case of `O=C1OC(c2ccc(Cl)cc2)(c2ccc(Cl)cc2)c2c1ccc1ccccc21`, the TGI with ACHN renal, with UO-31 renal, with NCI-H460 lung, in the test on LOX IMVI melanoma, in the test with TK-10 renal and with HCT-15 colon was > 100 µM in each case.
With `N/C(=N\N=C\c1cc2c(cc1Cl)OCO2)NO`, the TGI in the test on UO-31 renal was 64.2 µM; in the test with NCI-H460 lung, > 100 µM; in the test on LOX IMVI melanoma, > 100 µM; in the test with HCT-15 colon, > 100 µM.
In the case of `CC(=O)Nc1ccc(-c2nnc(SCC(=O)Nc3cccc([N+](=O)[O-])c3)o2)cc1`, the TGI worked out at 43.7 µM with ACHN renal; 39.8 µM in the test on UO-31 renal; 28.8 µM in the test with NCI-H460 lung; 23 µM with LOX IMVI melanoma; 67.5 µM with TK-10 renal; 46.2 µM in the test with HCT-15 colon.
For `C/C(=N\NC(=O)c1cccnc1)c1cccc(/C(C)=N/NC(=O)c2cccnc2)n1.CC(=O)[O-].CC(=O)[O-].[Zn+2]`, the TGI with ACHN renal is > 68 µM; in the test with UO-31 renal, > 100 µM; with NCI-H460 lung it was > 100 µM; in the test on LOX IMVI melanoma, > 32.5 µM; with TK-10 renal, > 100 µM; in the test on HCT-15 colon it was > 100 µM.
Take `CN1CCN(/C(N)=C(\C#N)C(=O)Nc2ccccc2)CC1`: the TGI with ACHN renal, with UO-31 renal, in the test with NCI-H460 lung, in the test on LOX IMVI melanoma, in the test with MDA-MB-435 and in the test on MDA-N was > 100 µM throughout. Besides, the TGI in the test on HCT-15 colon was > 100 µM.
`N#Cc1ccc(Nc2cnc3ccc(N)cc3n2)cc1`: the TGI in the test with ACHN renal, with UO-31 renal, with NCI-H460 lung, in the test with LOX IMVI melanoma, with TK-10 renal and with HCT-15 colon was > 100 µM each time.
For the molecule `Cc1oncc1NC1=CC(=O)C(=O)c2ccccc21`, the TGI in the test with ACHN renal amounted to 16.7 µM; with UO-31 renal, 27.9 µM; in the test with HS 578T breast, 71.5 µM; in the test on NCI-H460 lung, 20.3 µM; in the test on LOX IMVI melanoma, 10.5 µM; with MDA-MB-231 breast, 32.8 µM. The figures for the TGI in the test with TK-10 renal, in the test with MDA-MB-435 and in the test on HCT-15 colon were 45.2 µM, 3.51 µM and 12.2 µM, respectively.
On to `COC(=O)[C@@]12OC[C@]34C([C@@H](O)C1O)[C@@]1(C)CC(=O)C(O)=C(C)C1C[C@H]3OC(=O)[C@H](OC(=O)/C=C(/c1ccccc1)C(F)(F)F)[C@H]42` (stereo partly drawn), for which the TGI is 17.5 µM in the test on ACHN renal; > 25 µM with UO-31 renal; 6.71 µM in the test on NCI-H460 lung; > 25 µM in the test with TK-10 renal; > 25 µM in the test on HCT-15 colon.
Regarding `C=C1C(=O)O[C@@H]2OC3(C)CCC4C(C)CCC1C42OO3` (stereo partly drawn), the GI50 with UO-31 renal was 4.57 µM; in the test with LOX IMVI melanoma it was 3.55 µM; in the test with HCT-15 colon, 2.3 µM. Also, the TGI in the test with UO-31 renal was 17.5 µM and 22.1 µM; in the test on NCI-H460 lung it was 8.04 µM and 5.58 µM; with LOX IMVI melanoma it was 12.9 µM and 8.11 µM; in the test with HCT-15 colon, 9.95 µM and 4.02 µM.
`COc1ccc(NCc2cnc3nc(N)nc(N)c3c2C)cc1`: the TGI was > 100 µM with ACHN renal; > 100 µM with UO-31 renal; > 100 µM in the test on HS 578T breast; > 100 µM in the test with NCI-H460 lung; > 100 µM in the test with LOX IMVI melanoma; 0.962 µM with MDA-MB-231 breast. Moreover, the TGI in the test on TK-10 renal, in the test on MDA-MB-435 and in the test with HCT-15 colon was > 100 µM each time.
Regarding `COc1cc2cc3c4c(cc(OC)c(OC)c4c2cc1OC)CCN3C(=O)N(C)C`, the TGI is > 100 µM with ACHN renal; > 100 µM with UO-31 renal; > 100 µM in the test on NCI-H460 lung; > 100 µM in the test on LOX IMVI melanoma; > 10 µM in the test with TK-10 renal; > 100 µM in the test on HCT-15 colon.
Regarding `CC(O)c1cc2c(s1)C(=O)c1scc(C(C)O)c1C2=O` (stereo not drawn), the TGI in the test with ACHN renal was 2.47 µM; with UO-31 renal, 1.41 µM; in the test on NCI-H460 lung, 2.1 µM; in the test on LOX IMVI melanoma it was > 100 µM; in the test with TK-10 renal, 3.37 µM; with MDA-MB-435, 0.455 µM. The TGI in the test with MDA-N amounted to 0.421 µM; in the test with HCT-15 colon it was 1.13 µM.
With `C=CC[C@@H]1C=C[C@@H](C(=O)OC)n2c(=O)n(-c3ccccc3)c(=O)n21`, the TGI in the test with ACHN renal, in the test on UO-31 renal, in the test on HS 578T breast, in the test with LOX IMVI melanoma, in the test on MDA-MB-231 breast and in the test with TK-10 renal was > 100 µM in each case. In addition, the TGI in the test with MDA-MB-435 and with HCT-15 colon was > 100 µM throughout.
`C=CC[N+](CCO)(CCO)CCCCCCCCCCCCCCCCCC`: the TGI with UO-31 renal amounted to 31.4 µM; in the test with NCI-H460 lung it was 19.2 µM; in the test with LOX IMVI melanoma, 12.6 µM; in the test on HCT-15 colon, 41.4 µM.
As to `COc1cc(/C=c2/c3ccccc3n3c2cc(-c2ccccc2)[n+]3C)cc(OC)c1OC`, the TGI with ACHN renal is 15 µM; in the test on UO-31 renal, > 35.9 µM; in the test with NCI-H460 lung it was 17.1 µM; in the test with LOX IMVI melanoma, 12.6 µM; with MDA-MB-231 breast, 14.8 µM; in the test with TK-10 renal, 17.4 µM. The TGI worked out at 6.19 µM in the test with MDA-MB-435, 34.6 µM in the test with MDA-N and 18.5 µM in the test with HCT-15 colon.
With `CCC/C(Cl)=N\OC(=O)Nc1ccc(F)c([N+](=O)[O-])c1`, the TGI was 18.1 µM in the test with ACHN renal; 26.6 µM in the test with UO-31 renal; 34.9 µM with NCI-H460 lung; 66.8 µM in the test on LOX IMVI melanoma; 36.8 µM in the test with MDA-MB-231 breast; 32 µM in the test with TK-10 renal. Besides, the TGI with MDA-MB-435 worked out at 30.4 µM; with MDA-N it was 47.6 µM; with HCT-15 colon, 34.8 µM.
For `Cc1ccc(S(=O)(=O)C2c3nc4ccccc4cc3-c3nc4ccccc4nc32)cc1` (stereo not drawn), the TGI in the test with ACHN renal, in the test on UO-31 renal, in the test on LOX IMVI melanoma, in the test on TK-10 renal and in the test with HCT-15 colon was > 100 µM in each case.
Turning to `CCOC(=O)c1nc2cc(C(F)(F)F)ccc2nc1Nc1ccc(F)cc1`, the TGI in the test on NCI-H460 lung, in the test with LOX IMVI melanoma, in the test on MDA-MB-231 breast, with TK-10 renal, with MDA-MB-435 and with MDA-N was > 100 µM throughout. Further, the TGI with HCT-15 colon is > 100 µM.
Regarding `COc1ccc2c(c1)CC1(O)COc3cc(OC)ccc3C1O2` (stereo not drawn), the TGI with ACHN renal, with UO-31 renal, in the test on LOX IMVI melanoma, with MDA-MB-231 breast, in the test with TK-10 renal and in the test on MDA-MB-435 was > 100 µM in each case. In addition, the TGI in the test on MDA-N and in the test with HCT-15 colon was > 100 µM throughout.
Take `Nc1nn(CC(O)CO)c(=O)s1` (stereo not drawn): the TGI in the test on ACHN renal, with UO-31 renal, in the test on NCI-H460 lung, in the test on LOX IMVI melanoma, in the test with TK-10 renal and in the test on HCT-15 colon was > 100 µM in each case.
With `CC1(C)OCC(COC(=O)NCn2cc(-c3ccccc3)nn2)O1` (stereo not drawn), the TGI in the test on ACHN renal, in the test with NCI-H460 lung, with LOX IMVI melanoma, in the test on MDA-MB-231 breast, in the test with TK-10 renal and with HCT-15 colon was > 100 µM throughout.
Turning to `Cn1cc(-c2nc(-c3c[nH]c4ccncc34)cs2)c2cc(F)ccc21`, the GI50 in the test with ACHN renal was 1.74 µM; with UO-31 renal it was 1.57 µM; with HS 578T breast, 2.21 µM; in the test with NCI-H460 lung it was 1.77 µM; with MDA-MB-231 breast, 1.55 µM; with TK-10 renal, 2.11 µM. Also, the values for the GI50 in the test with MDA-MB-435 and in the test on HCT-15 colon were 1.64 µM and 1.33 µM, respectively. The TGI worked out at 3.12 µM in the test with ACHN renal; 2.92 µM with UO-31 renal; 4.74 µM in the test on HS 578T breast; 3.42 µM with NCI-H460 lung; 3.1 µM in the test on MDA-MB-231 breast; 3.69 µM with TK-10 renal. Also, the results for the TGI in the test with MDA-MB-435 and with HCT-15 colon were 3.06 µM and 2.71 µM, respectively.
`C[C@H](CN1CC(=O)NC(=O)C1)N1CC(=O)NC(=O)C1`: the TGI with UO-31 renal is > 44.1 µM; in the test with NCI-H460 lung, > 100 µM; with LOX IMVI melanoma it was > 100 µM; in the test with HCT-15 colon, > 100 µM.
